The values below come from patent EP0435222A2, “Aminopyridinylmethanols and aminomethylpyridinamines and related compounds, a process for their preparation and their use as medicaments” (HOECHST-ROUSSEL PHARMACEUTICALS INCORPORATED, priority 1989, dated 1991).

SMILES strings stand for the structures. Structures can show the parent of a compound that is named as a salt. Where two headings read alike, the source gives them in different places.

For test [1], the system named is naja naja (snake venom) phospholipase A₂-induced paw edema. The test is described as follows: Phospholipase A₂-induced Paw Edema (PIPE). Format: in vivo, male Wistar rats. Conditions: for PIPE* (0.1 M): difference in edema vs. control, 0.1 M test compound injected with PLA₂ (3 units/paw), subplantar, rat hindpaw, two hours post administration. As for the experimental part: The ability of compounds to prevent naja naja (snake venom) phospholipase A₂-induced paw edema in male Wistar rats (100-125 g) was measured. PLA₂ (3 units/paw) alone or with 0.1 M of the test compound was injected in the subplantar region of the rat left hindpaw. Immediately subsequent to the injection and at two hours post administration the paw was immersed in a mercury bath, and paw displacement was measured on a recorder via a transducer (Standard: hydrocortisone ED₅₀=0.46 M). See Giessler, A.J. et al., Agents and Actions, Vol. 10, Trends in Inflammation Research (1981), p. 195.

The test system of test [2] is Scopolamine Induced Memory Deficit. The test is described as follows: Dark Avoidance Assay (reversal of scopolamine-induced memory deficit). Format: in vivo, mice. Conditions: for responders at 0.16 mg/kg: Dose 0.16 mg/kg of body weight; for responders at 0.3 mg/kg: Dose 0.30 mg/kg of body weight. As for the experimental part:
In this assay mice are tested for their ability to remember an unpleasant stimulus for a period of 24 hours. A mouse is placed in a chamber that contains a dark compartment: a strong incandescent light drives it to the dark compartment, where an electric shock is administered through metal plates on the floor. The animal is removed from the testing apparatus and tested again, 24 hours later, for the ability to remember the electric shock. If scopolamine, an anticholinergic that is known to cause memory impairment, is administered before an animal's initial exposure to the test chamber, the animal re-enters the dark compartment shortly after being placed in the test chamber 24 hours later. This effect of scopolamine is blocked by an active test compound, resulting in a greater interval before re-entry into the dark compartment. The results for an active compound are expressed as the percent of a group of animals in which the effect of scopolamine is blocked, as manifested by an increased interval between being placed in the test chamber and re-entering the dark compartment.

The target of another test is T1, porcine pancreatic PLA₂ (Sus scrofa, UniProt P00592).
T1 construct: porcine pancreatic PLA₂ (3.2 units); from tissue; host or cells: porcine pancreas
The test is described as follows: In Vitro Phospholipase A₂ Assay (PLA₂). Format: biochemical. As for the experimental part: The ability of a compound to modulate PLA₂ activity (cleavage of ¹⁴C-dipalmitoyl phosphotidylcholine at the 2-position to ¹⁴C-palmitic acid) was quantitated in this assay. The reaction mixture contained Tris buffer (25mM), pH 8.0, calcium chloride (2.0 mM), bovine serum albumin (0.5 mg), dipalmitoyl phosphotidylcholine (8x10⁻⁵M), (¹⁴C-palmitoyl)dipalmitoyl phosphotidylcholine (6x10³ cpm), porcine pancreatic PLA₂ (3.2 units) and the test compound. The reaction was run at 37°C in a shaking incubator. The reaction was quenched and an internal standard was added in order to determine sample recovery. […] See Feyen, J.H.M., et al., Journal of Chromatography 259 (1983), pp. 338-340.

For test [3], the system named is mouse ear edema induced by topical application of arachidonic acid. Kind of test: Arachidonic Acid-Induced Ear Edema (AAEE). Format: in vivo, Female Swiss Webster mice. Here is the method: The purpose of this assay was to determine the ability of a topically-applied compound to prevent mouse ear edema induced by topical application of arachidonic acid. Female Swiss Webster mice topically received vehicle or test compound (1.0 mg/ear) on both ears (10µl on outer and inner ears). After 30 minutes, the right ear of all groups received arachidonic acid (4 mg/ear) and the left ear received vehicle alone. After an additional 1 hour, the mice were sacrificed and an ear punch (4 mm) was taken from each ear. The difference in right and left ear punch weights for each animal was determined to assess activity (Standard: indomethacin ED₅₀ = 1.5 mg/ear). See Young, J.M. et al., J. Invest. Dermatol., 80, (1983), pp 48-52.

Test [4] deals with ear edema induced by topical application of TPA (phorbol 12-myristate acetate). The test is described as follows: TPA-Induced Ear Edema (TPAEE). Format: in vivo, Female Swiss Webster mice. Conditions: for TPAEE (10 µg): 10 µg/ear topical, TPA 10µg/ear, ear punch weight after five hours. As for the experimental part:
The purpose of this assay was to determine the ability of a topically-applied compound to prevent ear edema induced by topical application of TPA (phorbol 12-myristate acetate). Female Swiss Webster mice topically received TPA (10µg/ear) on the right ear and vehicle on the left ear. The test compound (10 µg/ear) was applied to both ears. After five hours, the animals were sacrificed and an ear punch (4 mm) was taken from each ear. The difference in right and left ear punch weights for each animal was determined to assess activity (Standard: hydrocortisone ED₅₀=47 µg/ear). See Young, J.M. et al., J. Invest. Dermatol., 80 (1983), pp. 48-52.

The subject of test [5] is 2-phenyl-1,4-benzoquinone-induced writhing. The test is described as follows: Inhibition of Phenylquinone-Induced Writhing in Mice (PQW). Format: in vivo, male CD-1 Charles River mice.
Method: A 0.125% concentration of phenyl-p-benzoquinone in a 5% aqueous solution of ethyl alcohol is administered to mice (10 mL/kg, ip). This produces a characteristic "writhe" which is defined as an inward rotation of one or more feet with twisting and turning of the trunk, drawing in of the abdominal wall, lordosis, and arching of the back. A total of 28 male CD-1 Charles River mice (18-30 g) are employed for a time-response. Animals receive food and water ad libitum during their stay in the animal quarters prior to testing. Compounds are tested at 20 mg/kg, sc and are prepared with distilled water, and if insoluble one drop of Tween-80, a surfactant is added. Compounds are administered in a dosage volume of 10 mL/kg.
Twenty mice (five per group) are administered the test compound at various pretreat time (e.g., 15,30,45, and 60 min) prior to phenylquinone injection. Control animals (two per group) receive an equal volume of vehicle. After the administration of phenylquinone, the mice are placed separately into 1-L beakers, and 5 min are allowed to elapse. The mice are then observed for a period of 10 min, and the number of writhes is recorded for each animal. The formula for computing percent inhibition is [drawing 20]
The time period with the maximum percent of inhibition is considered the peak time.
[6] abbreviates: 0.01 M test compound, porcine pancreatic PLA₂, 37°C, pH 8.0, change vs. control, read-out: PLA2* (0.01 M).
Setting [7] is: Mus musculus, sc, 24 h, s.c, read-out: % of Animals with Scopolamine Induced Memory Deficit Reversal.

T1 sequence (P00592 23-146): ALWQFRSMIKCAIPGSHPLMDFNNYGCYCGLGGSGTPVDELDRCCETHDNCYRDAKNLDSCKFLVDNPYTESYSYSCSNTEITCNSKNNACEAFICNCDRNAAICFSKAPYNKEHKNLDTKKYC

Regarding `CC(NCc1ccccc1)c1cnccc1N` (stereo not drawn) [4-Amino-α-methyl-N-(phenylmethyl)-3-pyridinemethanamine], the “PIPE* (0.1 M)” value in test [1] is on record as -44%. In the case of `CC(O)c1cnccc1N` (stereo not drawn) [α-Methyl-4-amino-3-pyridinylmethanol hydrochloride], the responders at 1.25 mg/kg in test [2] (Mus musculus, sc, 24 h, Dose 1.25 mg/kg of body weight, s.c, read-out: % of Animals with Scopolamine Induced Memory Deficit Reversal) came to 33%.

As for `Nc1ccncc1C(O)c1ccccc1` (stereo not drawn) [α.Phenyl-4-amino-3-pyridinylmethanol hydrochloride], the responders at 0.63 mg/kg in test [2] (Mus musculus, sc, 24 h, Dose 0.63 mg/kg of body weight, s.c, read-out: % of Animals with Scopolamine Induced Memory Deficit Reversal) is 27%. In addition, on porcine pancreatic PLA₂ (setting [6]), the inhibition at 10000 µM stood at 87%. `CC(C)(C)C(=O)Nc1ccncc1C(O)C1CCCCC1` (stereo not drawn) [α-Cyclohexyl-4-(2,2-dimethylpropionamido)-3-pyridinylmethanol]: the “AAEE (1 mg)” value in test [3] (1.0 mg/ear topical, 30 minutes before arachidonic acid (4 mg/ear), ear punch weight after 1 hour) was -52%. In addition, in test [4], the “TPAEE (10 µg)” value was -55%. In test [2] (setting [7]), the responders at 0.16 mg/kg is 33%. Take `CCC(=O)O[C@](Cc1ccccc1)(c1ccccc1)[C@H](C)CN(C)C` [Propoxyphene, reference compound]: the “PQW (% inhibition of writhing)” value in test [5] (Dose 3.9 mg/kg, s.c. (reference compound)) is given as 50%. Regarding `CC(NCc1ccccc1)c1cnccc1NC(=O)C(C)(C)C` (stereo not drawn) [N-[3-[1-(Phenylmethylamino)ethyl]-4-pyridinyl]-2,2-dimethylpropanamide dihydrochloride], the inhibition at 10000 µM on porcine pancreatic PLA₂ (pH 8, read-out: PLA2* (0.01 M)) worked out at 74%. For `CCCCNCc1cnccc1N.Cl.Cl` [3-(Butylamino)methyl-4-pyridinamine dihydrochloride], the responders at 0.3 mg/kg in test [2] (setting [7]) was found to be 27%. Besides, in test [5] (Dose 20 mg/kg, s.c.), the “PQW (% inhibition of writhing)” value stood at 62%. Take `Nc1ccncc1C(O)c1ccccc1F` (stereo not drawn) [α-(2-Fluorophenyl)-4-amino-3-pyridinylmethanol hydrochloride]: the responders at 1 mg/kg in test [2] (Mus musculus, sc, 24 h, Dose 1.0 mg/kg of body weight, s.c, read-out: % of Animals with Scopolamine Induced Memory Deficit Reversal) amounted to 40%. The “PIPE* (0.1 M)” value in test [1] was -56%. Take `CC(C)(C)C(=O)Nc1ccncc1C(O)c1ccccc1` (stereo not drawn) [α.Phenyl-4-(2,2-dimethylpropionamido)-3-pyridinylmethanol]: in test [2] (Mus musculus, sc, 24 h, Dose 0.31 mg/kg of body weight, s.c, read-out: % of Animals with Scopolamine Induced Memory Deficit Reversal), the responders at 0.31 mg/kg turned out to be 40%. In addition, the “PQW (% inhibition of writhing)” value in test [5] (Dose 20 mg/kg, s.c.) was determined as 38%.

Take `Cl.Nc1ccncc1C(=O)C1CCCCC1` [(4-Amino-3-pyridinyl)cyclohexylmethanone hydrochloride]: in test [4], the “TPAEE (10 µg)” value is -53%. Besides, the inhibition at 10000 µM at porcine pancreatic PLA₂ (pH 8, read-out: PLA2* (0.01 M)) worked out at 82%. Turning to `Nc1ccncc1C(=NO)C1CCCCC1` [(4-Amino-3-pyridinyl)cyclohexylmethanone oxime hydrochloride], the inhibition at 10000 µM on porcine pancreatic PLA₂ (pH 8, read-out: PLA2* (0.01 M)) came to 99%.

As to `Nc1ccncc1C(N)c1ccccc1` (stereo not drawn) [(4-Amino-3-pyridinyl)benzenemethanamine dihydrochloride], the responders at 0.3 mg/kg in test [2] (setting [7]) worked out at 27%. Besides, the “PIPE* (0.1 M)” value in test [1] is on record as -66%. `Cl.Cl.Nc1ccncc1C(N)C1CCCCC1` (stereo not drawn) [(4-Amino-3-pyridinyl)cyclohexylmethanamine dihydrochloride]: the inhibition at 10000 µM at porcine pancreatic PLA₂ (pH 8, read-out: PLA2* (0.01 M)) amounted to 72%. For the same molecule, the “PIPE* (0.1 M)” value in test [1] is given as -68%.

With `COc1ccc2c(c1)c(CC(=O)O)c(C)n2C(=O)c1ccc(Cl)cc1` [indomethacin, reference compound], the ED₅₀ in test [3] (standard of the AAEE assay, topical) was found to be 1.5 mg/ear. As for `Nc1ccncc1C(=NO)c1ccccc1F` [(4-Amino-3-pyridinyl)-(2-fluorophenyl)-methanone oxime], the “TPAEE (10 µg)” value in test [4] was -56%. For the same molecule, the inhibition at 10000 µM at porcine pancreatic PLA₂ (setting [6]) was 32%.

Turning to `CNC(=O)Oc1ccc2c(c1)[C@]1(C)CCN(C)[C@@H]1N2C` [Physostigmine, reference compound], the “% of Animals with Scopolamine Induced Memory Deficit Reversal” value in test [2] (mouse, in vivo, 0.31 mg/kg) is 20%. In the case of `Nc1ccncc1C(O)C1CCCCC1` (stereo not drawn) [α-Cyclohexyl-4-amino-3-pyridinylmethanol hydrochloride], the responders at 0.16 mg/kg in test [2] (setting [7]) was found to be 50%. For the molecule `CC(O)c1cnccc1NC(=O)C(C)(C)C` (stereo not drawn) [α-Methyl-4-(2,2-dimethylpropionamido)-3-pyridinylmethanol], the “PQW (% inhibition of writhing)” value in test [5] (Dose 20 mg/kg, s.c.) turned out to be 89%.

On to `Cl.Cl.Nc1ccncc1CNCc1ccccc1` [3-[(Phenylmethylamino)methyl]-4-pyridinamine dihydrochloride], for which the inhibition at 10000 µM on porcine pancreatic PLA₂ (pH 8, read-out: PLA2* (0.01 M)) came to 79%. Besides, the “PQW (% inhibition of writhing)” value in test [5] (Dose 20 mg/kg, s.c.) came to 40%. In test [1], the “PIPE* (0.1 M)” value was -51%. With `C[C@]12CCC(=O)C=C1CC[C@@H]1[C@@H]2[C@@H](O)C[C@@]2(C)[C@H]1CC[C@]2(O)C(=O)CO` [hydrocortisone, reference compound], the ED₅₀ in test [4] (standard of the TPAEE assay, topical) came to 47 µg/ear; in test [1] (standard of the PIPE assay), 0.46 M.
